Test results published in patent publication US20190167711A1, “METHODS FOR DIAGNOSIS AND TREATMENT OF ACUTE LYMPHOBLASTIC LEUKEMIA” (MOR RESEARCH APPLICATIONS LTD., priority 2014, published 2019).

Key:
NAMPT = NAMPT expression by FACS in transfected Nalm-6 cells; format: cell-based
Protocol: One to two million NALM-6 transfected cells were collected 48 hours after transfection and fixed using 500 μl fixation and permeabilization buffer prior to immunofluorescent staining of intracellular proteins (e.g., BD Phosflow™ Fix Buffer I (BD Biosciences, San Jose, Calif., USA)) for 15 minutes. Then, pellets were washed twice using PBS and resuspended in 500 μl methanol. Samples were incubated for 2 hours in −20° C. For staining, pellets were washed with PBS and resuspended in 10 ml BD™ Cell Wash buffer (BD Biosciences, San Jose, Calif., USA) containing 2% FCS. The cells were stained for NAMPT using anti-NAMPT antibody (Ab) (1:1000) (R&D Systems®, MN, USA). […] The cells were sorted on flow cytometer (Calibur™ flow cytometer, Becton Dickinson, Le Pont-De-Claix, France) and analyzed using BD CellQuest™ Pro software.
Using open access software programs (TargetScan and miRanda), NAMPT was identified as a predicted target of miR-451. […] NAMPT expression was measured by FACS analysis using a specific NAMPT antibody.
In order to assess a possible association or correlation between miR-451 expression levels and sensitivity to in-vivo treatment of ALL with a NAMPT inhibitor, the effect of the NAMPT inhibitor FK866 was assessed in the presence of elevated levels or lowered levels of miR-451 in ALL xenograft mouse model. […] Tumors volume was measured daily.

NAMPT 3′-UTR = experiment: Luciferase reporter assay with NAMPT 3′-UTR; format: cell-based; settings: after transfection
Description: To perform the reporter assay, the regulatory region of NAMPT is cloned […] of the Firefly luciferase gene in an expression vector, and the resulting recombinant vector, e.g., pLightSwitch 3′UTR, is transfected into cells along with an expression vector comprising the Renilla gene serving as reference. In accordance with some embodiments described herein, a target reporter vector containing the full-length wild type NAMPT 3′ untranslated region (3′-UTR) (pLightSwithch NAMPT 3′UTR) purchased from GeneCopoeia™ (Rockville, Md., USA) was co-transfected into NALM-6 cells along with Renilla luciferase vector as internal vector control. The NAMPT 3′-UTR contains miRNA response elements (MREs), to one of which miRNA-451 specifically binds. Twenty-four hours before transfection, NALM-6 cells were plated in 6 wells until 70% confluent. Two hundred (200) pmol miR-451 mimic, 200 pmol scrambled miR (both purchased from IDT®-Syntezza, Jerusalem, Israel) or 2 μg antagomiR-451 plasmid (GeneCopoeia™, Rockville, Md., USA) were transiently transfected into NALM-6 cells together with 2 μg pLightSwitch NAMPT 3′UTR and Renilla luciferase vector. […] Briefly, cells were collected, lysed to release all proteins (including the luciferase), luciferin was added along with all the necessary cofactors, and the enzymatic activity was quantitatively measured using a luminometer. […]

miR-451 mimic: a dsmiR-451 designed to copy or mimic the functionality of mature endogenous miR-451 upon transfection (AAACCGUUACCAUUACUGAGUU; double-stranded mimic, further chemistry not given here; listed as Homo sapiens)
NAMPT protein expression decreased by (NAMPT): 46% | relative luciferase activity of NAMPT 3′-UTR reporter decreased by (NAMPT 3′-UTR): 80%
